Test results from patent publication US11827917B1, “Methods for the conversion of fermentable sugars to ethanol” (Colorado State University Research Foundation, priority 2020, dated 2023).

Experiments:
[1] = test system: S. cerevisiae JAY 270; assay: Continuous two-column immobilized cell bioreactor in YPD medium; format: cell-based, Saccharomyces cerevisiae; details: Phase 2, 0.2% PheOH in feed
Source text: The immobilized cell reactor system consisted of two glass cylindrical columns, a vessel with agitation containing fermentation medium (controlled temperature, pH, and dissolved oxygen), and a pump for delivery of the feed to the column. The glass column had dimensions of OD=32, ID=29, and L=160 mm; screens were placed above and below the alginate bead layer to retain the cells in the column. YPD medium with 0.6 g/L CaCl2·2H2O was used in the continuous fermentation. Two columns (a well-mixed reactor column and a packed-bed column) were used in this test (FIG. 5). The total volume of immobilized cells used to fill the column was […] and the medium volume was 20 mL in each column. The total medium volume in the system was 60 mL, including the medium in both columns and in the vessel. The flow rate of fresh medium was 2.3 mL/min.
The system was first fed with YPD medium for 20 hours to activate the immobilized cells. After 20 hours, samples were collected at different times points over 24 hours from both Column 1 (well-mixed reactor) and the entire system. Then YPD medium containing 0.2% PheOH was used to replace the YPD medium for another 26 hours. After that, the medium was changed back to YPD medium for 6 hours. The content of glucose and ethanol in samples was analyzed using HPLC.
Owing to the limited supply of algal hydrolysate, the test was conducted using YPD medium. The test was conducted with 0.2% PheOH as the growth inhibitor. For 20 hours prior to the start of the experiment, the system was fed YPD medium without PheOH to ensure that the cells were fully active following their immobilization. The experiment was then conducted with three phases: • (1) 24 hours, during which the feed was YPD medium without PheOH. The start of this phase represented time zero of the experiment. • (2) 26 hours, during which the feed was YPD medium with 0.2% PheOH. • (3) 6 hours, during which the feed was YPD medium without PheOH.

[2] = test system: yeast cell growth; assay: Serum-bottle study of the TrpOH concentration with similar growth inhibition as PheOH; format: cell-based; details: serum bottles, data not shown
Description: For experiments with added PheOH, 2.0 mL of PheOH stock solution was added to one of the two vessels when the OD600 reached 1.0 to achieve a final concentration of 0.2% (w/v). In the serum bottle tests, TrpOH had stronger effects on yeast cell growth than PheOH at the same tested concentration. A study in serum bottles was then conducted to determine the TrpOH concentration that would have a similar growth inhibitory effect. […] Thus, for bioreactor experiments on the effects of TrpOH, the TrpOH was added at 0.12%. Since TrpOH was dissolved in DMSO, the same concentration of DMSO was added in the control bioreactor at the same time. All other bioreactor conditions were the same as in the PheOH test.

Compound	Ethanol productivity ([1]; C1)	Ethanol yield ([1]; C1)	Ethanol yield ([1]; C1+C2)	Glucose conversion ([1]; C1+C2)	Glucose conversion ([1]; after C1)	Ethanol productivity ([1]; whole system)	Concentration with similar growth inhibition as PheOH at 16.4 mM [2]	Concentration with similar growth inhibition as PheOH at 0.2% (w/v) [2]
OCCc1ccccc1 [PheOH, 2-phenylethanol]	21 g/L·h	about 0.45	~0.43	91%	60%	21 g/L·h		
OCCc1c[nH]c2ccccc12 [TrpOH, tryptophol]							7.5 mM	0.12 % (w/v)
